# Assay results: publication PMC3411462, “Long-acting κ opioid antagonists nor-BNI, GNTI and JDTic: pharmacokinetics in mice and lipophilicity” (BMC Pharmacology, 2012)
# “Also recorded” adds a separate entry of the source. Read-outs that look alike come from different tables or passages of the source.
# Key:
# [1] = Brain and plasma concentrations in mice after intraperitoneal administration (LC-MS-MS), non-compartmental analysis; format: in vivo; details: for half-life / AUC(0-inf) / concentration at 0.5 h / concentration at 1 h / concentration at 2 h / concentration at 4 h / concentration at 24 h / CL/F / Vd/F: 10 mg/kg; for half-life: read-out: t1/2 (converted); for k el: read-out: Lambda_z (converted)
# [2] = biological target: T1, human P-gp (Homo sapiens, UniProt P08183); test: LLC-PK1-MDR1 cell permeation and efflux; format: in vitro ADME; details: cells expressing human P-gp
# T1 construct: expressed in transfected cells; host or cells: LLC-PK1 (pig kidney epithelial cells) transfected with human MDR1 at Amgen
# T1 sequence (P08183 whole entry): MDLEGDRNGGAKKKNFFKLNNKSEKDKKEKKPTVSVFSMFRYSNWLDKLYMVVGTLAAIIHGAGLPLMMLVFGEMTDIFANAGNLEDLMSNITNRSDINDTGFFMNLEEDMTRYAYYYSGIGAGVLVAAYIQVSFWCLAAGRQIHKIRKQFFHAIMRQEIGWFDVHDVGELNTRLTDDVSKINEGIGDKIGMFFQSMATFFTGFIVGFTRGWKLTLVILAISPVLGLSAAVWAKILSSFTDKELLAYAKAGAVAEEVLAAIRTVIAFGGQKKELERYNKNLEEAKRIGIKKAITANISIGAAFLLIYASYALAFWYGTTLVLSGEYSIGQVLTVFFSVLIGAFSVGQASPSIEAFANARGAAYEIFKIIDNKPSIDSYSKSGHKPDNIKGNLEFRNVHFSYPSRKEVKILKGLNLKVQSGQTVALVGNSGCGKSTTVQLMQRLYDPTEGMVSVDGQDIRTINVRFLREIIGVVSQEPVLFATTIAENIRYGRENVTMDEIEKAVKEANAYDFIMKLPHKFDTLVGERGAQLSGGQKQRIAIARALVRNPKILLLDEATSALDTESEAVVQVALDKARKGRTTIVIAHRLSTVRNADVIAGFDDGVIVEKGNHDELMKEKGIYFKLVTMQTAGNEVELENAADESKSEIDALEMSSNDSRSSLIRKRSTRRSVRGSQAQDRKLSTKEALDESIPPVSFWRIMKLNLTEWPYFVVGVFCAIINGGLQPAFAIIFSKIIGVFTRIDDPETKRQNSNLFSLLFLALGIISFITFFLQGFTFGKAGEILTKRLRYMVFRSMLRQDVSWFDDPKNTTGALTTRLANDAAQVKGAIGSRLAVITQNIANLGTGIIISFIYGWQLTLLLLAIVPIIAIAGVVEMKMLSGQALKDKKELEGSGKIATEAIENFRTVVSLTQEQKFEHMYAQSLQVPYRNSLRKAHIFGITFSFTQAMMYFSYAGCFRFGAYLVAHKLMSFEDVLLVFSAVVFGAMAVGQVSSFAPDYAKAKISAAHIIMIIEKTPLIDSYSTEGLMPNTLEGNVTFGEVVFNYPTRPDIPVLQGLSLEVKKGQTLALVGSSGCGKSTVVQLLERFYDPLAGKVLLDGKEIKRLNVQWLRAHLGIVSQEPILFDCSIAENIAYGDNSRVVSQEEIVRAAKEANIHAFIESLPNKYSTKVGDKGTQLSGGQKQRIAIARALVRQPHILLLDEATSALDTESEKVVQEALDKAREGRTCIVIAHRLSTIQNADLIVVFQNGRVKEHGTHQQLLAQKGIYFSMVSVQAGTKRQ
# [3] = biological target: T2, P-gp (human MDR1) (Homo sapiens, UniProt P08183); test: LLC-PK1-MDR1 cell permeation and efflux; format: in vitro ADME
# T2 construct: expressed in transfected cells; host or cells: LLC-PK1 (pig kidney epithelial cells) transfected with human MDR1 at Amgen
# T2 sequence (P08183 whole entry): as above
# [4] = tested on: mice; test: Fatalities and behavioral effects after i.p. administration; details: 100 mg kg^-1
# Experimental: Experiments were performed between 10 am and 6 pm. Mice were not used in other experiments, or exposed to other drugs, before testing began.
# Doses are reported by weight of the specified salt. Intraperitoneal injections were administered in distilled water vehicle (10 mL kg^-1). Body mass was measured to ±0.1 g. Some values were inadvertently measured on a low-precision balance (± 2.5 g); these timepoints were replicated at ±0.1 g.
# [5] = male, Swiss-Webster, mouse, ip, brain NCA, 10 mg/kg i.p.
# [6] = male, Swiss-Webster, mouse, ip, plasma NCA, 10 mg/kg i.p.
# [7] = male, Swiss-Webster, mouse, plasma, intraperitoneal, read-out: Conc (plasma, NCA input)
# [8] = male, Swiss-Webster, mouse, plasma, ip, 10 mg/kg i.p., read-out: mean (plasma)
# [9] = male, Swiss-Webster, mouse, plasma, ip, 10 mg/kg i.p., individual mice, read-out: [drug],plasma (free base equivalent)
structure (smiles),measurement,setting,value
"CC(C)[C@@H](CN1CC[C@@](C)(c2cccc(O)c2)[C@@H](C)C1)NC(=O)[C@H]1Cc2ccc(O)cc2CN1 [JDTic, (3R)-7-Hydroxy-N-((1S)-1-{[(3R,4R)-4-(3-hydroxyphenyl)-3,4-dimethyl-1-piperidinyl]methyl}-2-methylpropyl)-1,2,3,4-tetrahydro-3-isoquinolinecarboxamide]",half-life,"[1]; male, Swiss-Webster, mouse, brain, ip, brain NCA, 10 mg/kg i.p.",220 h
same,AUC(0-inf),"[1]; male, Swiss-Webster, mouse, brain, ip, brain, 10 mg kg^-1 i.p., non-compartmental analysis, read-out: AUC 0–∞,brain",10300 ng·h/mL
same,Tmax,"[1]; male, Swiss-Webster, mouse, in vivo, ip, ·2HCl salts, 10 mg kg^-1 i.p., mice",0.5 h
same,AUC(0-t),[1]; [5],4400 ng·h/mL
same,Tmax,[1]; [5],0.5 h
same,Cmax,"[1]; male, Swiss-Webster, mouse, ip, brain NCA, 10 mg/kg i.p., read-out: Cmax",71.1 ng/mL
same,k el,[1]; [5],8.75e-07 s⁻¹
same,AUC(0-t),[1]; [6],866 ng·h/mL
same,Tmax,[1]; [6],0.5 h
same,k el,[1]; [6],3.75e-05 s⁻¹
same,MRT inf,"[1]; male, Swiss-Webster, mouse, ip, plasma NCA, 10 mg/kg i.p., read-out: MRT 0-inf_obs",4.3 h
same,Cmax,"[1]; male, Swiss-Webster, mouse, ip, plasma, 10 mg kg^-1 i.p., mice, read-out: C max,p",245 ng/mL
same,concentration at 0.5 h,[1]; [7],245 ng/mL
same,concentration at 1 h,[1]; [7],154 ng/mL
same,concentration at 2 h,[1]; [7],56.9 ng/mL
same,concentration at 4 h,[1]; [7],46.6 ng/mL
same,concentration at 24 h,[1]; [7],3 ng/mL
same,concentration at 0.5 h,[1]; [8],245 ng/mL
same,concentration at 1 h,[1]; [8],154 ng/mL
same,concentration at 2 h,[1]; [9],42.3 ng/mL
same,concentration at 2 h,[1]; [8],57 ng/mL
same,concentration at 4 h,[1]; [8],47 ng/mL
same,concentration at 24 h,[1]; [9],5 ng/mL
same,concentration at 24 h,"[1]; male, Swiss-Webster, mouse, plasma, ip, 10 mg/kg i.p., <MRC substituted by MRC/2, read-out: mean (plasma)",3 ng/mL
same,AUC(0-inf),"[1]; male, Swiss-Webster, mouse, plasma, ip, plasma NCA, 10 mg/kg i.p., read-out: AUC 0-inf_obs",888 ng·h/mL
same,CL/F,"[1]; male, Swiss-Webster, mouse, plasma, ip, plasma NCA, 10 mg/kg i.p., read-out: Cl/F_obs (converted)",188 mL/min/kg
same,Vd/F,"[1]; male, Swiss-Webster, mouse, plasma, ip, plasma NCA, 10 mg/kg i.p., read-out: Vz/F_obs",83.3 L/kg
same,half-life,"[1]; male, Swiss-Webster, mouse, plasma, ip, plasma NCA, 10 mg/kg i.p.",5.13 h
same,AUC(0-inf),"[1]; male, Swiss-Webster, mouse, plasma, ip, plasma, 10 mg kg^-1 i.p., non-compartmental analysis, read-out: AUC 0–∞,p",888 ng·h/mL
same,CL/F,"[1]; male, Swiss-Webster, mouse, plasma, ip, plasma, 10 mg kg^-1 i.p., non-compartmental analysis, read-out: CL/F (converted)",18.3 mL/min/kg
same,Vd/F,"[1]; male, Swiss-Webster, mouse, plasma, ip, plasma, 10 mg kg^-1 i.p., non-compartmental analysis, read-out: V z /F",83 L/kg
same,Decline of mean brain level,"[1]; over 24 hours, 10 mg kg^-1 i.p.",56%
same,AUMC 0-inf_obs,"[1]; plasma NCA, 10 mg/kg i.p.",3814.94 ng/ml*h^2
same,Tlag,"[1]; plasma NCA, 10 mg/kg i.p.",0 h
same,Maximal plasma concentration relative to those after nor-BNI and GNTI,"[1]; same dose, 10 mg kg^-1 i.p.",less than 10%
same,"C max,brain,u","[1]; unbound brain, 10 mg kg^-1 i.p., in vivo brain binding assumed at least 3-fold greater than homogenate",< 4 nM
same,Decline of mean plasma concentration from peak,"[1]; within 1 hour, 10 mg kg^-1 i.p.",37%
same,Decline of mean plasma concentration from peak,"[1]; within 2 hours, 10 mg kg^-1 i.p.",77%
same,Decline of mean plasma concentration from peak,"[1]; within 4 hours, 10 mg kg^-1 i.p.",at least 80%
same,Active transport / P-gp-mediated efflux,[2],showed P-gp-mediated efflux; also recorded: very high efflux ratio
same,"Papp A→B at 120 min, 5 μM","[3]; pig (LLC-PK1 cells) transfected with human MDR1, LLC-PK1, apical to basolateral, 5 μM, 0.1% BSA, 120 min, n = 2",0.5 ×10⁻⁶ cm/s
same,"Papp B→A at 120 min, 5 μM","[3]; pig (LLC-PK1 cells) transfected with human MDR1, LLC-PK1, basolateral to apical, 5 μM, 0.1% BSA, 120 min, n = 2",24 ×10⁻⁶ cm/s
same,"efflux ratio at 120 min, 5 μM","[3]; pig (LLC-PK1 cells) transfected with human MDR1, LLC-PK1-MDR1 monolayers, read-out: Efflux ratio (B → A/A → B)",48
same,Behavioral effects observed,[4],"Only mild behavioral effects, such as hiccup-like spasms and shivering"
same,Fatalities,[4],no fatalities
